Measurements published in ChEMBL document CHEMBL3885861, “Open TG-GATES”.

Species on record: Rattus norvegicus
Assay: Open TG-GATES - Regimen: Daily Repeat
Format: toxicity, organism-based, Sprague-Dawley
Design: regimen Daily Repeat, gender Male, age 6 weeks
Conditions: in vivo, po, 8 mg/kg, […], route gavage, dose level Low; for KIDNEY_L / KIDNEY_R / KIDNEY_TOTAL: tissue Kidney; for LIVER: tissue Liver; for A/G / ALP / ALT / AST / BUN / CRE / Ca / Cl / DBIL / GLC / IP / K / LDH / Na / PL / RALB / TBIL / TC / TG / TP / gamma-GTP: tissue Plasma

## NC1=NC(=O)C(c2ccccc2)O1 (stereo unspecified) [PEMOLINE]
Tissue Blood, time 28 day
  Lym: 70%
  MCH: 20.3 pg
  MCHC: 36.2%
  MCV: 56.2 fL
  Mono: 3.4%
  Neu: 24.6%
  PT: 12.5 s
  Plat: 97.4 x10_4/uL
  RBC: 746.4 x10_4/ul
  Ret: 3.1%
  WBC: 106.7 x10_2/uL
Time 7 day
  KIDNEY_L: 1.2 g
  KIDNEY_R: 1.1 g
  KIDNEY_TOTAL: 2.3 g
  LIVER: 12.4 g
  A/G: 0.9
  ALP: 1719 IU/L
  ALT: 45 IU/L
  AST: 69.8 IU/L
  BUN: 15.8 mg/dL
  CRE: 0.2 mg/dL
  Ca: 10.5 mg/dL
  Cl: 103.8 meq/L
  DBIL: 0.014 mg/dL
  GLC: 180.8 mg/dL
  IP: 7.6 mg/dL
  K: 3.9 meq/L
  LDH: 62.6 IU/L
  Na: 142 meq/L
  PL: 152.6 mg/dL
  RALB: 2.6 g/dL
  TBIL: 0.026 mg/dL
  TC: 84.6 mg/dL
  TG: 94.4 mg/dL
  TP: 5.7 g/dL
  gamma-GTP: 1 IU/L
Time 14 day
  KIDNEY_L: 1.3 g
  KIDNEY_R: 1.3 g
  KIDNEY_TOTAL: 2.6 g
  LIVER: 14.9 g
  A/G: 0.8
  ALP: 1588.8 IU/L
  ALT: 47.4 IU/L
  AST: 70.4 IU/L
  BUN: 14.8 mg/dL
  CRE: 0.2 mg/dL
  Ca: 11.1 mg/dL
  Cl: 105.6 meq/L
  DBIL: 0.014 mg/dL
  GLC: 179.2 mg/dL
  IP: 8.2 mg/dL
  K: 3.7 meq/L
  LDH: 75 IU/L
  Na: 144.6 meq/L
  PL: 150.4 mg/dL
  RALB: 2.7 g/dL
  TBIL: 0.028 mg/dL
  TC: 80 mg/dL
  TG: 117 mg/dL
  TP: 5.8 g/dL
  gamma-GTP: 1 IU/L
Time 28 day
  KIDNEY_L: 1.6 g
  KIDNEY_R: 1.6 g
  KIDNEY_TOTAL: 3.2 g
  LIVER: 17.3 g
  A/G: 0.8
  ALP: 966.8 IU/L
  ALT: 41.4 IU/L
  AST: 63.2 IU/L
  BUN: 15.2 mg/dL
  CRE: 0.2 mg/dL
  Ca: 11.4 mg/dL
  Cl: 104.8 meq/L
  DBIL: 0.016 mg/dL
  GLC: 192.2 mg/dL
  IP: 7.5 mg/dL
  K: 3.9 meq/L
  LDH: 61.8 IU/L
  Na: 142.6 meq/L
  PL: 154.6 mg/dL
  RALB: 2.8 g/dL
  TBIL: 0.028 mg/dL
  TC: 84.4 mg/dL
  TG: 121.4 mg/dL
  TP: 6.1 g/dL
  gamma-GTP: 1 IU/L
